One test deals with HepG2 cell line. As to the kind of experiment: In vitro anti-proliferative MTT assay, HepG2. Format: cell-based, human. The source says:
(§1) The cytotoxicity results were obtained as median growth inhibitory concentration (IC50).
(§2) MTT assay protocol. This method was applied in accordance with the comprehensive description in Supplementary data. […]
(§3) 5 Raw data of cytotoxity and VEGFR -2 assay […]
(§4) Experimental of biological testing
(§5) 1. In vitro anti-proliferative activity
(§6) MTT assay protocol was applied to assess the anti-proliferative activity of the synthesized compounds. Two human cancer cell lines (MCF-7 and HepG-2) and one normal cell line (WI-38) were used in this test. At first, the cell lines were cultured in RPMI -1640 medium with 10% fetal bovine serum. Antibiotics (100 units/ml penicillin and100 µg/ml streptomycin ) were added at 37 °C in a 5% CO2 incubator. The cell lines were seeded in a 96-well plate at a density of 1.0 x 10^4 cells / well at 37 °C for 24 h under 5% CO2. After incubation, the cells were treated with different […]
(§7) concentration of the synthesized compounds and incubated for 24 h. After 24 h of drug treatment, 20 µl of MTT solution at 5mg/ml was added and incubated for 4 h. Dimethyl sulfoxide (DMSO) in volume of 100 µl was added into each well to dissolve the purple formazan formed. The colorimetric assay was measured and recorded at absorbance of 570 nm using a plate reader (EXL 800, USA). The relative cell viability in percentage was calculated as (A570 of treated samples/A570 of untreated sample) X 100. […]
On the technique in general: Formazan colour is commonly taken as a measure of viable cells.

A further test relates to MCF-7 cell line. As to the kind of experiment: In vitro anti-proliferative MTT assay, MCF-7. Format: cell-based, human.
From the text: as §1, §2, §3, §4, §5, §6, §7

The target in a further test is T1, VEGFR-2 (Homo sapiens, UniProt P35968).
T1 construct: purchased
As to the kind of experiment: In vitro VEGFR-2 kinase assay (ELISA kit). Format: biochemical. Conditions: for IC50: ELISA kit; for HillSlope best-fit value, VEGFR-2 / LogIC50 best-fit value, VEGFR-2: supplement raw data, curve fit. The procedure:
The assay was applied by ELISA kits in accordance with the comprehensive description in[18]^,[33] as described in Supplementary data. […]
2. In vitro VEGFR-2 kinase assay
All the synthesized compounds were tested for its inhibitory activity against VEGFR-2. Human VEGFR-2 ELISA kit (Enzyme-Linked Immunosorbent Assay) was utilized in this test. At first, specific antibody for VEGFR-2 was seeded on a 96-well plate and 100 μL of the standard solution or the tested compound was added, all were incubated at room temperature for 2.5 h. Then washed, 100 μL of the prepared biotin antibody was added, then incubated at room temperature for additional 1 h. and washed. Then, 100 μL of streptavidin solution was added and incubated for 45 min. at room temperature. Washed again, 100 μL of TMB Substrate reagent was added and incubated for 30 min. at room temperature. 50 μL of the stop solution was added, then read at 450 […]
nm immediately. […]
For orientation: In an ELISA, binding on a coated surface is turned into a signal by an enzyme label.

A further test concerns WI-38 cell line. As to the kind of experiment: In vitro cytotoxicity against normal cell line (MTT). The format is cell-based, human. Also noted: LogIC50 best-fit value, WI-38: unit not given here. Conditions: for IC50: WI-38, normal human lung cell line, MTT; for HillSlope best-fit value, WI-38 / LogIC50 best-fit value, WI-38: supplement raw data, dose-response curve fit.
From the text: […]. Such values were very high in comparison to the corresponding values on cancer cell lines, which reflect high safety profile of the tested candidates towards normal cell lines.
as §2, §3, §4, §5, §6, §7

Setting [1] is: Homo sapiens, HepG2, 24 h, MTT, 24 h treatment, mean of three experiments, read-out: In vitro IC50 HepG2.
The mark [2] stands for this setting: Homo sapiens, HepG2, supplement raw data, dose-response curve fit, read-out: LogIC50 best-fit value, HepG2 (converted).
Setting [3] is: Homo sapiens, MCF7, 24 h, MTT, 24 h treatment, mean of three experiments, read-out: In vitro IC50 MCF-7.
The mark [4] stands for this setting: Homo sapiens, MCF7, supplement raw data, dose-response curve fit, read-out: LogIC50 best-fit value, MCF-7 (converted).
Where [5] appears, read: Homo sapiens, HepG2, supplement raw data, dose-response curve fit, read-out: IC50 best-fit value, HepG2.

Where two headings read alike, the source gives them in different places.

T1 sequence (P35968 20-1356): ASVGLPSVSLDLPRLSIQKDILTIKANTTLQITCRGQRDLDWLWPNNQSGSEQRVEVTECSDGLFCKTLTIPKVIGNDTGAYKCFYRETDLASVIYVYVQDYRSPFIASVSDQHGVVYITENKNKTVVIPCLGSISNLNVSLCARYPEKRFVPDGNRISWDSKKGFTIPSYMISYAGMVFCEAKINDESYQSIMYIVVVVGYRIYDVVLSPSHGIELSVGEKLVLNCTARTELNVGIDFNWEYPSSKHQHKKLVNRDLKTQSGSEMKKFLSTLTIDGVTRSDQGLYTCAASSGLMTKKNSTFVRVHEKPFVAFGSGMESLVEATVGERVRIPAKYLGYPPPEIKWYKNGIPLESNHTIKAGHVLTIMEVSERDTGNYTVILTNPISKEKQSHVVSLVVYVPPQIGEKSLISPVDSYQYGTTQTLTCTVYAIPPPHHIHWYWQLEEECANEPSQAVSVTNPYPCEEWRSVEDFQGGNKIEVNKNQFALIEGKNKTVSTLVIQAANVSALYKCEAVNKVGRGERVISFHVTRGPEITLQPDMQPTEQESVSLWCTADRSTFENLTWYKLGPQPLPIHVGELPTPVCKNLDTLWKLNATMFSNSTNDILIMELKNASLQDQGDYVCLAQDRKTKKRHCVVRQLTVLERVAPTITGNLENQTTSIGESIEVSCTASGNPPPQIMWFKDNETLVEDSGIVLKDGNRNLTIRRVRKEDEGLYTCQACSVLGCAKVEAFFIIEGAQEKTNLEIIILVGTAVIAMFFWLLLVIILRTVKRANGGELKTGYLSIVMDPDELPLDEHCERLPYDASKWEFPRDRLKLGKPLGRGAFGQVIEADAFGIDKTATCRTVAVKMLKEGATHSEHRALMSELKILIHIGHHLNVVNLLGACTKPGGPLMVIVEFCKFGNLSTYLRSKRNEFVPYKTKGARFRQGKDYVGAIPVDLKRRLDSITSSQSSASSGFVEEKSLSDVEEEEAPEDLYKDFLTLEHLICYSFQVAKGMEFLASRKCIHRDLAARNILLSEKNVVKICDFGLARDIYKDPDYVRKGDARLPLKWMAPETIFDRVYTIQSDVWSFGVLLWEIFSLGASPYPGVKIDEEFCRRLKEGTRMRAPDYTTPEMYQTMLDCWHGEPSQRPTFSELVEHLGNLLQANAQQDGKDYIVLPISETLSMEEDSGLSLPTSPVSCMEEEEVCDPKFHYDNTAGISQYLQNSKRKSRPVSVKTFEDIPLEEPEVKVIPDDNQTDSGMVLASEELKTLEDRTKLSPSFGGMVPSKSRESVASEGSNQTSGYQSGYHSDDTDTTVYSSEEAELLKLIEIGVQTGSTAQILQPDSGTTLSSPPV

As to `O=C(CSc1nc2ccccc2o1)Nc1ccc(C(=O)NC2CCCC2)cc1` [Compound 12a, 4–(2-(Benzo[d]oxazol-2-ylthio)acetamido)-N-cyclopentylbenzamide], the IC50 in the test with HepG2 cell line (setting [1]) is 38.8 ± 3.2 µM; with HepG2 cell line (setting [2]), 38.8 µM; in the test with MCF-7 cell line (setting [3]), 33.3 ± 2.9 µM; in the test with MCF-7 cell line (setting [4]) it was 33.3 µM.

On to `O=C(CSc1nc2cc(Cl)ccc2o1)Nc1ccc(C(=O)NC2CCCC2)cc1` [Compound 12b, 4–(2-((5-Chlorobenzo[d]oxazol-2-yl)thio)acetamido)-N-cyclopentylbenzamide], for which the IC50 in the test with HepG2 cell line (setting [1]) was 64.2 ± 6.1 µM; in the test with HepG2 cell line (setting [2]), 64.1 µM; in the test on MCF-7 cell line (setting [3]) it was 77 ± 7.3 µM; in the test on MCF-7 cell line (setting [4]), 77.1 µM.

For `Cc1ccc2oc(SCC(=O)Nc3ccc(C(=O)NC4CCCC4)cc3)nc2c1` [Compound 12c, N-Cyclopentyl-4–(2-((5-methylbenzo[d]oxazol-2-yl)thio)acetamido)benzamide], the IC50 in the test on HepG2 cell line (setting [1]) was 74.3 ± 6.8 µM; with HepG2 cell line (setting [2]), 74.3 µM; in the test with MCF-7 cell line (setting [3]) it was 36.7 ± 3.3 µM; in the test on MCF-7 cell line (setting [4]) it was 36.7 µM.

Regarding `CC(C)(C)NC(=O)c1ccc(NC(=O)CSc2nc3ccccc3o2)cc1` [Compound 12d, 4–(2-(Benzo[d]oxazol-2-ylthio)acetamido)-N-(tert-butyl)benzamide], the IC50 was 0.195 µM on VEGFR-2; 23.6 ± 2.1 µM with HepG2 cell line (setting [1]); 23.6 µM with HepG2 cell line (setting [2]); 99.4 µM in the test on WI-38 cell line; 44.1 ± 3.8 µM in the test with MCF-7 cell line (setting [3]); 44.1 µM with MCF-7 cell line (setting [4]). In addition, the “HillSlope best-fit value, VEGFR-2” value at VEGFR-2 was -0.4166. Moreover, at VEGFR-2, the “LogIC50 best-fit value, VEGFR-2” value was 2.289 Log (nM). For the same compound, the “HillSlope best-fit value, WI-38” value in the test with WI-38 cell line is -0.3751. Moreover, the “LogIC50 best-fit value, WI-38” value in the test on WI-38 cell line worked out at 1.997.

With `CC(C)(C)NC(=O)c1ccc(NC(=O)CSc2nc3cc(Cl)ccc3o2)cc1` [Compound 12e, N-(Tert-butyl)-4–(2-((5-chlorobenzo[d]oxazol-2-yl)thio)acetamido)benzamide], the IC50 in the test on HepG2 cell line (setting [1]) is 71.6 ± 6.7 µM; in the test on HepG2 cell line (setting [2]) it was 71.6 µM; with MCF-7 cell line (setting [3]), 62.3 ± 5.8 µM; in the test with MCF-7 cell line (setting [4]), 62.2 µM.

Take `Cc1ccc2oc(SCC(=O)Nc3ccc(C(=O)NC(C)(C)C)cc3)nc2c1` [Compound 12f, N-(Tert-butyl)-4–(2-((5-methylbenzo[d]oxazol-2-yl)thio)acetamido)benzamide]: the IC50 is 0.265 µM on VEGFR-2; 37 ± 3.4 µM with HepG2 cell line (setting [1]); 37 µM in the test with HepG2 cell line (setting [2]); 22.5 ± 1.8 µM with MCF-7 cell line (setting [3]); 22.5 µM in the test with MCF-7 cell line (setting [4]). The “HillSlope best-fit value, VEGFR-2” value on VEGFR-2 is reported as -0.3283. For the same compound, the “LogIC50 best-fit value, VEGFR-2” value at VEGFR-2 is listed as 2.423 Log (nM).

In the case of `COc1cccc(NC(=O)c2ccc(NC(=O)CSc3nc4ccccc4o3)cc2)c1` [Compound 12g, 4–(2-(Benzo[d]oxazol-2-ylthio)acetamido)-N-(3-methoxyphenyl)benzamide], the IC50 is 36.7 ± 2.9 µM in the test with HepG2 cell line (setting [1]), 36.6 µM in the test with HepG2 cell line (setting [2]), 53 ± 5.1 µM with MCF-7 cell line (setting [3]) and 53 µM in the test with MCF-7 cell line (setting [4]).

On to `COc1cccc(NC(=O)c2ccc(NC(=O)CSc3nc4cc(Cl)ccc4o3)cc2)c1` [Compound 12h, 4–(2-((5-Chlorobenzo[d]oxazol-2-yl)thio)acetamido)-N-(3-methoxyphenyl)benzamide], for which the IC50 was 102 ± 8.5 µM with HepG2 cell line (setting [1]), 102 µM in the test with HepG2 cell line (setting [2]), 85.6 ± 8.2 µM in the test on MCF-7 cell line (setting [3]) and 85.7 µM in the test with MCF-7 cell line (setting [4]).

With `COc1cccc(NC(=O)c2ccc(NC(=O)CSc3nc4cc(C)ccc4o3)cc2)c1` [Compound 12i, N-(3-Methoxyphenyl)-4–(2-((5-methylbenzo[d]oxazol-2-yl)thio)acetamido)benzamide], the IC50 at VEGFR-2 was 0.155 µM; in the test on HepG2 cell line (setting [1]), 27.3 ± 2.2 µM; with HepG2 cell line (setting [2]) it was 27.3 µM; in the test with WI-38 cell line, 76.8 µM; in the test on MCF-7 cell line (setting [3]), 28 ± 2.1 µM; in the test on MCF-7 cell line (setting [4]), 28 µM. Moreover, the “HillSlope best-fit value, VEGFR-2” value on VEGFR-2 is listed as -0.3818. For the same compound, on VEGFR-2, the “LogIC50 best-fit value, VEGFR-2” value is 2.190 Log (nM). Also, the “HillSlope best-fit value, WI-38” value with WI-38 cell line is given as -0.4944. For the same compound, the “LogIC50 best-fit value, WI-38” value in the test on WI-38 cell line was found to be 1.885.

Consider `O=C(CSc1nc2ccccc2o1)Nc1ccc(C(=O)Nc2cccc(Cl)c2)cc1` [Compound 12j, 4–(2-(Benzo[d]oxazol-2-ylthio)acetamido)-N-(3-chlorophenyl)benzamide], for which the IC50 in the test on HepG2 cell line (setting [1]) was 33.6 µM; in the test with HepG2 cell line (setting [2]), 50.9 µM; with HepG2 cell line (MTT, 24 h treatment, mean of three experiments, read-out: In vitro IC50 HepG2) it was 50.9 ± 4.6 µM; with MCF-7 cell line (setting [3]), 50.9 µM; with MCF-7 cell line (setting [4]) it was 33.6 µM; with MCF-7 cell line (MTT, 24 h treatment, mean of three experiments, read-out: In vitro IC50 MCF-7), 33.6 ± 2.8 µM.

On to `O=C(CSc1nc2cc(Cl)ccc2o1)Nc1ccc(C(=O)Nc2cccc(Cl)c2)cc1` [Compound 12k, 4–(2-((5-Chlorobenzo[d]oxazol-2-yl)thio)acetamido)-N-(3-chlorophenyl)benzamide], for which the IC50 is 28.4 ± 2.5 µM in the test on HepG2 cell line (setting [1]), 28.4 µM in the test on HepG2 cell line (setting [2]), 86.6 ± 7.8 µM with MCF-7 cell line (setting [3]) and 86.7 µM with MCF-7 cell line (setting [4]).

Consider `O=C(CSc1nc2ccccc2o1)Nc1ccc(C(=O)NNC(=O)c2cccc(Cl)c2)cc1` [Compound 13a, 2-(Benzo[d]oxazol-2-ylthio)-N-(4–(2-(3-chlorobenzoyl)hydrazine-1-carbonyl)phenyl)-acetamide], for which the values for the IC50 on VEGFR-2, in the test with HepG2 cell line (setting [2]) and in the test on MCF-7 cell line (setting [4]) were 0.268 µM, 25.5 µM and 32.4 µM, respectively. Moreover, the “HillSlope best-fit value, VEGFR-2” value at VEGFR-2 was -0.5089. For the same compound, at VEGFR-2, the “LogIC50 best-fit value, VEGFR-2” value is given as 2.428 Log (nM).

Regarding `O=C(CSc1nc2cc(Cl)ccc2o1)Nc1ccc(C(=O)NNC(=O)c2cccc(Cl)c2)cc1` [Compound 13b, 2-((5-Chlorobenzo[d]oxazol-2-yl)thio)-N-(4–(2-(3-chlorobenzoyl)hydrazine-1-carbonyl)-phenyl)acetamide], the IC50 in the test with HepG2 cell line (setting [1]) is 42.1 ± 3.8 µM; in the test with HepG2 cell line (setting [2]), 42.1 µM; in the test with MCF-7 cell line (setting [3]), 26.3 ± 2.2 µM; with MCF-7 cell line (setting [4]) it was 26.3 µM.

For the compound `Cc1ccc2oc(SCC(=O)Nc3ccc(C(=O)NNC(=O)c4cccc(Cl)c4)cc3)nc2c1` [Compound 13c, N-(4–(2-(3-Chlorobenzoyl)hydrazine-1-carbonyl)phenyl)-2-((5-methylbenzo[d]oxazol-2-yl)thio)acetamide], the IC50 in the test with HepG2 cell line (setting [1]) was 24.2 ± 2.1 µM; in the test on HepG2 cell line (setting [5]) it was 24.4 µM; in the test on HepG2 cell line (setting [2]), 24.4 µM; in the test with MCF-7 cell line (setting [3]), 53.1 ± 3.7 µM; in the test with MCF-7 cell line (setting [4]) it was 53.1 µM.

In the case of `CNC(=O)c1cc(Oc2ccc(NC(=O)Nc3ccc(Cl)c(C(F)(F)F)c3)cc2)ccn1` [Sorafenib, sorafenib, reference compound], the IC50 was 5.57 ± 0.4 µM with HepG2 cell line (setting [1]); 5.57 µM in the test with HepG2 cell line (setting [5]); 5.57 µM in the test with HepG2 cell line (setting [2]); 22.1 µM in the test on WI-38 cell line; 6.46 ± 0.3 µM in the test on MCF-7 cell line (setting [3]); 6.46 µM in the test with MCF-7 cell line (Homo sapiens, MCF7, supplement raw data, dose-response curve fit, read-out: IC50 best-fit value, MCF-7). The IC50 in the test on MCF-7 cell line (setting [4]) was 6.46 µM. The “HillSlope best-fit value, WI-38” value in the test on WI-38 cell line is -0.4247. For the same compound, the “LogIC50 best-fit value, WI-38” value in the test on WI-38 cell line is 1.344.

For the origin of these results see article PMC9327782, “Benzoxazole derivatives as new VEGFR-2 inhibitors and apoptosis inducers: design, synthesis, in silico studies, and antiproliferative evaluation” (Journal of Enzyme Inhibition and Medicinal Chemistry, 2022).
